# Patent US20090275586A1, “HETEROCYCLIC INHIBITORS OF PDE4” (KALYPSYS, INC., priority 2006, published 2009)
# Columns and labels:
# [1] = biological target: T1, PDE4B (Homo sapiens, UniProt Q07343); assay: PDE4 IMAP Assay; format: biochemical; conditions: 2 h; Activity at 10 μM; catalytic domain of PDE4B; read-out: PDE IMAP Assay
# T1 construct: hexa-histidine (His6) (N); made in house
# From the text: Compounds may be screened for functional potency in in vitro biochemical assays for their ability to inhibit the activity of phosphodiesterase (PDE) enzymes. A commercial PDE assay, Molecular Device's PDE IMAP assay, was modified and utilized to measure the inhibitory activity of compounds on PDE isoforms. The IMAP technology is based on the high affinity binding of phosphate by immobilized metal (MIII) coordination complexes on nanoparticles. This IMAP “binding reagent” complexes with phosphate groups on the nucleotide monophosphates generated in the reaction. Such binding causes a change in the rate of the molecular motion of the nucleotide, and results in an increase in the fluorescence polarization value observed for the fluorescent label attached to the substrate. PDE inhibitors prevent the generation of nucleotide monophosphates and the subsequent increase in polarization value observed for the fluorescent label attached to the substrate. The catalytic domain of PDE4B was fused to an amino-terminus hex-histadine affinity tag and purified. PDE4B enzyme was incubated with compounds for 10 minutes. Fluorescently labeled cyclic AMP substrates were then added to the PDE enzyme mix and incubated for 2 hours at room temperature. IMAP binding reagent was then added to the enzyme mix, incubated for 10-30 minutes and fluorescent polarization of the fluorescently labeled substrate was read either with the Perkin Elmer Viewlux or Molecular Devices Acquest or Analyst. Roflumilast and Rolipram are the positive controls used in the assay.
# [2] = test system: PDE4; assay: PDE4 Cellular CNG Assay; format: cell-based; conditions: Activity at 10 μM; HEK293 cells stably expressing the CNG channel
# From the text: Compounds may be screened for functional potency in in vitro cellular assays for their ability to inhibit the activity of phosphodiesterase (PDE) enzymes. A commercial membrane potential assay, Molecular Device's membrane potential assay kit, was modified and utilized to measure the inhibitory activity of compounds on PDE isoforms in living cells. The cellular assay utilizes genetically engineered cyclic nucleotide-gated (CNG) channels as cyclic-AMP (cAMP) sensors. On binding cAMP these ion channels open, allowing the flow of cations across the plasma membrane. CNG channel activity can be monitored by measuring Ca^2+ influx in cell populations. The influx of Ca causes a change in membrane potential that is measured by voltage sensitive dyes. PDE inhibitors prevent the degradation of cAMP that is generated by adenylyl cyclases that are activated upon stimulation of G protein-coupled receptors (GPCR) linked to the cAMP pathway. In brief, Molecular Device's membrane potential dye was added to HEK293 cells stably expressing the CNG channel and incubated for 2 hours at room temperature. Test compounds were then added to the cells and incubated for 15 minutes. A GPCR agonist was then added to the cells to stimulate the cAMP pathway and incubated for 45 minutes. Fluorescent measurements were then conducted with either the Molecular Devices Acquest or Analyst. PDE inhibitors will inhibit the degradation of cAMP and cause an increase in fluorescent signal. Roflumilast and Rolipram are the positive controls used in the assay.
# T1 sequence (Q07343 330-659 limits assumed, species assumed): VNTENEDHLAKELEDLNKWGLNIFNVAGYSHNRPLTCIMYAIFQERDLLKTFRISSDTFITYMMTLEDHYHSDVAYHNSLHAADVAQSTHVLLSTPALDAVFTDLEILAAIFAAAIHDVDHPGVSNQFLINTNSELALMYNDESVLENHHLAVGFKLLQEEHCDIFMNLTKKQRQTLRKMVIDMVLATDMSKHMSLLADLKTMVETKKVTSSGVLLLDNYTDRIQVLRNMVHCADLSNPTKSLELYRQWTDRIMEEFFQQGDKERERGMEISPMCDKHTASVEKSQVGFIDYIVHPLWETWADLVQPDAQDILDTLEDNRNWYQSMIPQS
inhibition at 10 µM [1],Compound,Cellular CNG Assay [2]
≥ 50%,"COc1ccc(S(=O)(=O)N2CC(C)(C)Oc3ccc(NC(=O)c4cccnc4SC)cc32)cc1OC [Example 10, N-(4-(3,4-dimethoxyphenylsulfonyl)-2,2-dimethyl-3,4-dihydro-2H-benzo[b][1,4]oxazin-6-yl)-2-(methylthio)nicotinamide]",+ (+indicates Activity ≧ 50% at 10 μM)
≥ 50%,"COc1ccc(S(=O)(=O)N2CC(C)(C)Oc3ccc(NC(=O)c4ccccc4OC)cc32)cc1OC [Example 11, N-(4-(3,4-dimethoxyphenylsulfonyl)-2,2-dimethyl-3,4-dihydro-2H-benzo[b][1,4]oxazin-6-yl)-2-methoxybenzamide]",+ (+indicates Activity ≧ 50% at 10 μM)
≥ 50%,"COc1ccc(NC(=O)c2ccccc2C(F)(F)F)cc1OC1CCCC1 [Example 12, N-(3-(cyclopentyloxy)-4-methoxyphenyl)-2-(trifluoromethyl)benzamide]",+ (+indicates Activity ≧ 50% at 10 μM)
≥ 50%,"CSc1nc(NC2CCCCC2)c2sccc2n1 [Example 13, N-cyclohexyl-2-(methylthio)thieno[3,2-d]pyrimidin-4-amine]",+ (+indicates Activity ≧ 50% at 10 μM)
≥ 50%,CCOc1ccccc1C(=O)Nc1c2c(nn1-c1cccc(Cl)c1)CS(=O)(=O)C2 [Example 14],− (−indicates Activity < 50% at 10 μM)
≥ 50%,"CC(C)n1c(=O)c(=O)n(Cc2cccc(C(F)(F)F)c2)c2cc(S(C)(=O)=O)ccc21 [Example 15, 1-Isopropyl-6-(methylsulfonyl)-4-(3-(trifluoromethyl)benzyl)quinoxaline-2,3(1H,4H)-dione]",+ (+indicates Activity ≧ 50% at 10 μM)
≥ 50%,"COC(=O)c1ccc(Cn2c(=O)c(=O)n(C(C)C)c3ccc(C(F)(F)F)cc32)cc1 [Example 16, Methyl 4-((4-isopropyl-2,3-dioxo-7-(trifluoromethyl)-3,4-dihydroquinoxalin-1(2H)-yl)methyl)benzoate]",+ (+indicates Activity ≧ 50% at 10 μM)
≥ 50%,"CCOC(=O)N1CCN(C(=O)c2cnn3c(C(F)(F)F)cc(-c4ccc(OC)c(OC)c4)nc23)CC1 [Example 17, Ethyl 4-(5-(3,4-dimethoxyphenyl)-7-(trifluoromethyl)pyrazolo[1,5-a]pyrimidine-3-carbonyl)piperazine-1-carboxylate]",+ (+indicates Activity ≧ 50% at 10 μM)
≥ 50%,"COc1ccc(-c2cc(C(F)(F)F)n3ncc(C(=O)Nc4cccc(CCC#N)c4)c3n2)cc1OC [Example 18, N-(3-(2-cyanoethyl)phenyl)-5-(3,4-dimethoxyphenyl)-7-(trifluoromethyl)pyrazolo[1,5-a]pyrimidine-3-carboxamide]",+ (+indicates Activity ≧ 50% at 10 μM)
≥ 50%,"O=C(c1cccc(N2CCNC2=O)c1)N(CCC1=CCCCC1)Cc1cc2cc3c(cc2nc1N1CCOCC1)OCO3 [Example 19, N-(2-cyclohexenylethyl)-N-((6-morpholino-[1,3]dioxolo[4,5-g]quinolin-7-yl)methyl)-3-(2-oxoimidazolidin-1-yl)benzamide]",+ (+indicates Activity ≧ 50% at 10 μM)
≥ 50%,"CCOc1ncccc1C(=O)Nc1ccc(S(=O)(=O)Nc2nccs2)cc1 [Example 20, 2-Ethoxy-N-(4-(N-thiazol-2-ylsulfamoyl)phenyl)nicotinamide]",+ (+indicates Activity ≧ 50% at 10 μM)
≥ 50%,"O=c1n(Cc2ccncc2)nc2c3ccccc3nc(C3CC3)n12 [Example 21, 5-Cyclopropyl-2-(pyridin-4-ylmethyl)-[1,2,4]triazolo[4,3-c]quinazolin-3(2H)-one]",+ (+indicates Activity ≧ 50% at 10 μM)
≥ 50%,"COc1ccc(-c2cnnn2-c2ccc(NC(=O)c3c(F)cccc3F)cc2)cc1OC [Example 22, N-(4-(5-(3,4-dimethoxyphenyl)-1H-1,2,3-triazol-1-yl)phenyl)-2,6-difluorobenzamide]",+ (+indicates Activity ≧ 50% at 10 μM)
≥ 50%,"COc1ccc(-c2cn3ccnc3c(NCc3ccccc3)n2)cc1OC [Example 24, N-benzyl-6-(3,4-dimethoxyphenyl)imidazo[1,2-a]pyrazin-8-amine]",

# More lines, now with the values behind:
Compound,inhibition at 10 µM [1],Cellular CNG Assay [2]
"NC(=O)CSc1nc2sc3c(c2c(=O)n1C1CCCC1)CCCC3 [Example 1, 2-(3-Cyclopentyl-4-oxo-3,4,5,6,7,8-hexahydro-benzo[4]thieno[2,3-d]pyrimidin-2-ylsulfanyl)-acetamide]",≥ 50%,+ (+indicates Activity ≧ 50% at 10 μM)
"CCNc1nc(NCC)n2c(SCc3nc4ccccc4c(=O)[nH]3)nnc2n1 [Example 2, 2-((5,7-Bis(ethylamino)-[1,2,4]triazolo[4,3-a][1,3,5]-triazin-3-ylthio)methyl)quinazolin-4(3H)-one]",≥ 50%,+ (+indicates Activity ≧ 50% at 10 μM)
"COc1ccc(CN(Cc2ccncc2)C(=O)c2ccc3[nH]c(C)c(C)c3c2)cc1OC [Example 3, N-(3,4-dimethoxybenzyl)-2,3-dimethyl-N-(pyridin-4-ylmethyl)-1H-indole-5-carboxamide]",≥ 50%,+ (+indicates Activity ≧ 50% at 10 μM)
"COc1ccc(CN(C(=O)c2cccc3ccccc23)C2CCCC2)cc1OC(C)C [Example 4, N-cyclopentyl-N-(3-isopropoxy-4-methoxybenzyl)-1-naphthamide]",≥ 50%,+ (+indicates Activity ≧ 50% at 10 μM)
"COc1ccc(CN(C)C(=O)c2cnn(-c3nccc(-c4cccs4)n3)c2C)cc1OC [Example 5, N-(3,4-dimethoxybenzyl)-N,5-dimethyl-1-(4-(thiophen-2-yl)pyrimidin-2-yl)-1H-pyrazole-4-carboxamide]",≥ 50%,+ (+indicates Activity ≧ 50% at 10 μM)
"CCc1cccc(C)c1Nc1cc(NCCc2ccc(OC)c(OC)c2)ncn1 [Example 6, N4-(3,4-dimethoxyphenethyl)-N6-(2-ethyl-6-methylphenyl)pyrimidine-4,6-diamine]",≥ 50%,+ (+indicates Activity ≧ 50% at 10 μM)
"Cc1ccc(S(=O)(=O)c2nnn3c2nc(NC(C)C)c2sccc23)cc1 [Example 7, N-isopropyl-3-tosylthieno[2,3-e][1,2,3]triazolo[1,5-a]pyrimidin-5-amine]",≥ 50%,− (−indicates Activity < 50% at 10 μM)
"CC(C)c1nc2sc3c(NCCCO)ncnc3c2c2c1COC(C)(C)C2 [Example 8, 3-(5-Isopropyl-2,2-dimethyl-1,4-dihydro-2H-3-oxa-7-thia-6,9,11-triazabenzo[c]fluoren-8-ylamino)-propan-1-ol]",≥ 50%,+ (+indicates Activity ≧ 50% at 10 μM)
"N#Cc1sc2nc(C3CC3)cc(-c3ccc(F)cc3)c2c1N [Example 9, 3-Amino-6-cyclopropyl-4-(4-fluorophenyl)thieno[2,3-b]pyridine-2-carbonitrile]",≥ 50%,+ (+indicates Activity ≧ 50% at 10 μM)
